Source: PMC6395531 (Journal of medicinal chemistry, 2019)

Legend:
[1] = Caco-2 bidirectional permeability; assay type: in vitro ADME; settings: Table 3
[2] = Pharmacokinetics of 29 in rats; settings: male, Sprague-Dawley, rat, in vivo
[3] = system: Salmonella typhimurium (TA98, TA100, TA1535, TA1537) and Escherichia coli (WP2 uvrA); experiment: Bacterial reverse mutation assay; settings: presence and absence of S9; monotartaric salts; 1.5 to 5000 μg/plate

SMILES	Caco-2 cells A-B [1] [×10⁻⁶ cm/s]	AUC(0-inf) ([2]; iv, 1 mg/kg) [ng·h/mL]	AUC(0-inf) ([2]; po, 2 mg/kg) [ng·h/mL]	mutagenicity in the TA1537 strain (Ames assay) [3]
Cc1ccc2nc(N3CCC(NC4CCOCC4)CC3)c(-c3nc(C)no3)cc2c1 [Compound 29, 1-(6-methyl-3-(3-methyl-1,2,4-oxadiazol-5-yl)quinolin-2-yl)-N-(tetrahydro-2H-pyran-4-yl)piperidin-4-amine]	26.2	212	28.4	
CCc1ccc2nc(N3CCC(N[C@H]4CCCC[C@@H]4O)CC3)c(-c3nc(C)no3)cc2c1 [Compound 34, (1S,2S)-2-((1-(6-ethyl-3-(3-methyl-1,2,4-oxadiazol-5-yl)quinolin-2-yl)piperidin-4-yl)amino)cyclohexanol]				exhibited mutagenicity in the TA1537 strain in the presence and absence of S9
CCc1ccc2nc(N3CCC(N[C@@H](C)C(C)C)CC3)c(-c3nc(C)no3)cc2c1 [Compound 33, (S)-1-(6-ethyl-3-(3-methyl-1,2,4-oxadiazol-5-yl)quinolin-2-yl)-N-(3-methylbutan-2-yl)piperidin-4-amine]				showed a mutagenic response in the TA1537 strain but only in the absence of S9
CCc1ccc2nc(N3CCC(N[C@@H]4CCCOC4)CC3)c(-c3nc(C)no3)cc2c1 [Compound 36, (R)-1-(6-ethyl-3-(3-methyl-1,2,4-oxadiazol-5-yl)quinolin-2-yl)-N-(tetrahydro-2H-pyran-3-yl)piperidin-4-amine]				showed a mutagenic response in the TA1537 strain but only in the absence of S9
CCc1ccc2nc(N3CCC(NCC4(C)COC4)CC3)c(-c3nc(C)no3)cc2c1 [Compound 35, 1-(6-ethyl-3-(3-methyl-1,2,4-oxadiazol-5-yl)quinolin-2-yl)-N-((3-methyloxetan-3-yl)methyl)piperidin-4-amine]				exhibited mutagenicity in the TA1537 strain in the presence and absence of S9
